Patent US20110217740A1, “METHODS, MICROORGANISMS, AND COMPOSITIONS FOR PLANT BIOMASS PROCESSING” (University of Georgia Research, priority 2008, published 2011)

These compounds were tested on A. thermophilum (assay: Sensitivity of A. thermophilum to selective agents). Details: selective agent in growth medium.
Format: cell-based, Anaerocellum thermophilum
Experimental: 5× Base Salts: 140.00 g/L NaCl, 17.50 g/L, MgSO4.7H2O, 13.50 g/L MgCl2.6H2O, 1.65 g/L KCl, 1.25 g/L NH4Cl, 0.70 g/L CaCl2.2H2O. Liquid complex cellobiose (CC) media (pH 6.8): 200 mL/L 5× Base salts, 1 mL/L 1000× Trace minerals, 100 μL/L 100 mM Na2WO4*2H2O, 50 μL/L Resazurin (5 mg/mL), 5 mL/L 10% w/v Yeast Extract, 50 mL/L 10% w/v Casein hydrolysate, 35 mL/L 10% w/v Cellobiose, 0.5 g/L Cysteine, 0.5g Na2S, 1 g/L NaHCO3, 1 mL/L 1M K2HPO4 buffer. Solid complex cellobiose (CC) media: 1× media +1% phytagel solution (Sigma Chemical Company, St. Louis, Mo.). CC plates containing 5-fluoroorotic acid (5-FOA): to ensure complete 5-FOA solvation, 1M NaOH is dripped into the solution until a murky consistency is reached at around pH 10, cysteine is then used to lower the pH to 7, where the solution turns transparent. Simvastatin plates: solid complex cellobiose plates with the indicated amount of simvastatin added. A. thermophilum is sensitive to 8 millimolar (mM) 5-FOA, 30 mM hygromycin, 8 micromolar (μM) simvastatin, and 50 μM apramycin.

| SMILES | concentration to which A. thermophilum is sensitive |
| --- | --- |
| O=C(O)c1[nH]c(=O)[nH]c(=O)c1F [5-FOA, 5-fluoroorotic acid] | 8000 µM |
| CN[C@@H]1[C@@H](O[C@H]2O[C@H](CO)[C@@H](N)[C@H](O)[C@H]2O)OC2C[C@@H](N)[C@@H](O[C@H]3[C@H](O)[C@@H](O)[C@H](N)C[C@@H]3N)OC2[C@@H]1O (stereo partly drawn) [apramycin] | 50 µM |
| CCC(C)(C)C(=O)O[C@H]1C[C@@H](C)C=C2C=C[C@H](C)[C@H](CC[C@@H]3C[C@@H](O)CC(=O)O3)[C@H]21 [simvastatin] | 8 µM |
